Assay results from ChEMBL document CHEMBL6092148, “Design, preparation and biological evaluation of new Rociletinib-inspired analogs as irreversible EGFR inhibitors to treat non-small-cell-lung cancer” (Bioorg Med Chem, 2024).

Columns and labels:
[1] = biological target: T1, Epidermal growth factor receptor (Homo sapiens, UniProt P00533)
Description: Inhibition of wild type EGFR (unknown origin) using poly (Glu:Tyr) as substrate incubated for 1 hr in presence of ATP by ADP-glo kinase assay

physchem = conditions: 1-octanol/PBS, pH 7.4
[2] = biological target: Epidermal growth factor receptor (Homo sapiens, UniProt P00533, L858R/T790M)
in vitro = conditions: human, HepG2 cells and A549 cells
Description: Selectivity index, ratio of IC50 for human HepG2 cells to IC50 for human A549 cells

A-431 = assay: cells; conditions: Homo sapiens, A-431, 72 h
HepG2 = assay: cells; conditions: Homo sapiens, HepG2, 72 h
A549 = assay: cells; conditions: Homo sapiens, A549, 72 h
[3] = Aqueous solubility of the compound in PBS buffer at PH 7.4 measured after 6 hrs by HPLC-UV analysis; type: physicochemical; conditions: pH 7.4, 6 h
[4] = biological target: T1, Epidermal growth factor receptor; assay: Potency index, ratio of rociletinib IC50 to test compound IC50 for inhibition of wild type EGFR (unknown origin)
[5] = biological target: T2, Tyrosine-protein kinase JAK3 (Homo sapiens, UniProt P52333)
T2 sequence (P52333 whole entry): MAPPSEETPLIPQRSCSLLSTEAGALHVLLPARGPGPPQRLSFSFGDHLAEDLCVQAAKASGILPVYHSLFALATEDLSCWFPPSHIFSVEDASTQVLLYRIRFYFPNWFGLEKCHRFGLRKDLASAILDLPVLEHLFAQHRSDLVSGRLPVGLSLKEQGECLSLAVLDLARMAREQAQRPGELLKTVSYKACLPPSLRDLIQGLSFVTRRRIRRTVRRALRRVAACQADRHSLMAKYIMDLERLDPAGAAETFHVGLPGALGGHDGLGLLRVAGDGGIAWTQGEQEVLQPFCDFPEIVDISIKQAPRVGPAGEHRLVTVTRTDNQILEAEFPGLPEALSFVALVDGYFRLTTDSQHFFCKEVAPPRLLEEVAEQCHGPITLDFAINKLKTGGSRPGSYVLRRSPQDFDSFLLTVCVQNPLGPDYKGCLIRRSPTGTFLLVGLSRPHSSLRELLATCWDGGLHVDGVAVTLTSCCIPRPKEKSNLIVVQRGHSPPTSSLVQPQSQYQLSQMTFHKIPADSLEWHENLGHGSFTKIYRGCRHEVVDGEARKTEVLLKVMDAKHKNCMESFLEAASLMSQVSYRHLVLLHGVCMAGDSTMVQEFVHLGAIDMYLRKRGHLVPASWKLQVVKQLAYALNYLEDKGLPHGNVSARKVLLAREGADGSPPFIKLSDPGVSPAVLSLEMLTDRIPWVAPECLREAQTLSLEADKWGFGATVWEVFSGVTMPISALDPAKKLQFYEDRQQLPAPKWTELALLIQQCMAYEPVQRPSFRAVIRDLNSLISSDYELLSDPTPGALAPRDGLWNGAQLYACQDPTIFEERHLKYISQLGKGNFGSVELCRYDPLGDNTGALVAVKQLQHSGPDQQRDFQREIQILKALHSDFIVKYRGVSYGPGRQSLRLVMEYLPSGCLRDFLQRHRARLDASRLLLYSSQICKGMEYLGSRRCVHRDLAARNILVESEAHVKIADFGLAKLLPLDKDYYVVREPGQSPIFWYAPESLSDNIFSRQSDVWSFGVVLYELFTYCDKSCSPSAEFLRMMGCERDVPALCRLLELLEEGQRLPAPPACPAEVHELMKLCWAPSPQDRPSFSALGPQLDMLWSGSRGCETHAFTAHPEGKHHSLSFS
Description: Inhibition of JAK3 (unknown origin) using poly (Glu:Tyr) as substrate incubated for 1 hr in presence of ATP by ADP-glo kinase assay

[6] = biological target: T1, Epidermal growth factor receptor; assay: Binding affinity to wild type EGFR (unknown origin) assessed as inhibition constant
[7] = biological target: T1, Epidermal growth factor receptor; remark: listed apart in the source
Description: Irreversible inhibition of wild type EGFR (unknown origin) assessed as inactivation constant

T1 sequence (P00533 whole entry): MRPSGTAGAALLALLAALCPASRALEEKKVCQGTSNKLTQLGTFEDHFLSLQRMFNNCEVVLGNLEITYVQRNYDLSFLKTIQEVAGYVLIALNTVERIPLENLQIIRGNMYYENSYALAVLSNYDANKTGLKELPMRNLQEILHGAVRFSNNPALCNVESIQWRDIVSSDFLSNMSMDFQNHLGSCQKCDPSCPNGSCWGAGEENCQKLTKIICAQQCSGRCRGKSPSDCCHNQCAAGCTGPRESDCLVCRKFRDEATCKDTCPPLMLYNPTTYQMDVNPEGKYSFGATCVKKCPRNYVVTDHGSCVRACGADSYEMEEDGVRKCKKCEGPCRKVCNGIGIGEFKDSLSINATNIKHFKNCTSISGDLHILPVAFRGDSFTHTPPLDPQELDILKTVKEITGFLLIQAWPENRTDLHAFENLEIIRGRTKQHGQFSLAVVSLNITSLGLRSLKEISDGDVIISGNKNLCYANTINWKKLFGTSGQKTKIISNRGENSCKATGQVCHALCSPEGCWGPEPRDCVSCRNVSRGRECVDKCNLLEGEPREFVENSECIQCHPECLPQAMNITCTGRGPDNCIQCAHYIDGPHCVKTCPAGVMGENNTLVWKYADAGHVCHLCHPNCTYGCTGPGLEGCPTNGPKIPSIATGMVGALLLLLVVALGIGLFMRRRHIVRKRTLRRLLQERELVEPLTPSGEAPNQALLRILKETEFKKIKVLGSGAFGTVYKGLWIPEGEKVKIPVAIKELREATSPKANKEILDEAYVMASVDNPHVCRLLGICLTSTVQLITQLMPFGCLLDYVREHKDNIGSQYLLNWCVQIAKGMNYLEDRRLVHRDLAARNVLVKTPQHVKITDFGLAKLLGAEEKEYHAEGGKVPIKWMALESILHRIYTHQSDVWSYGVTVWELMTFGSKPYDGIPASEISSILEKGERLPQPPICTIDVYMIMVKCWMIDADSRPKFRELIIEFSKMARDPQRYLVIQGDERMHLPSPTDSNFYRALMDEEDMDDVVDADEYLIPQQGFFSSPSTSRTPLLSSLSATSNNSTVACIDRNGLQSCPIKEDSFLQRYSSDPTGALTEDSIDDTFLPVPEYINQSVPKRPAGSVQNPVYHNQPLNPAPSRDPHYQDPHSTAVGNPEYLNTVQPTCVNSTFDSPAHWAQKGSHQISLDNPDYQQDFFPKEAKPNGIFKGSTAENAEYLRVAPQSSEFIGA
Sequence of Epidermal growth factor receptor (Homo sapiens, UniProt P00533, L858R/T790M) (P00533 25-1210 T790M/L858R limits assumed): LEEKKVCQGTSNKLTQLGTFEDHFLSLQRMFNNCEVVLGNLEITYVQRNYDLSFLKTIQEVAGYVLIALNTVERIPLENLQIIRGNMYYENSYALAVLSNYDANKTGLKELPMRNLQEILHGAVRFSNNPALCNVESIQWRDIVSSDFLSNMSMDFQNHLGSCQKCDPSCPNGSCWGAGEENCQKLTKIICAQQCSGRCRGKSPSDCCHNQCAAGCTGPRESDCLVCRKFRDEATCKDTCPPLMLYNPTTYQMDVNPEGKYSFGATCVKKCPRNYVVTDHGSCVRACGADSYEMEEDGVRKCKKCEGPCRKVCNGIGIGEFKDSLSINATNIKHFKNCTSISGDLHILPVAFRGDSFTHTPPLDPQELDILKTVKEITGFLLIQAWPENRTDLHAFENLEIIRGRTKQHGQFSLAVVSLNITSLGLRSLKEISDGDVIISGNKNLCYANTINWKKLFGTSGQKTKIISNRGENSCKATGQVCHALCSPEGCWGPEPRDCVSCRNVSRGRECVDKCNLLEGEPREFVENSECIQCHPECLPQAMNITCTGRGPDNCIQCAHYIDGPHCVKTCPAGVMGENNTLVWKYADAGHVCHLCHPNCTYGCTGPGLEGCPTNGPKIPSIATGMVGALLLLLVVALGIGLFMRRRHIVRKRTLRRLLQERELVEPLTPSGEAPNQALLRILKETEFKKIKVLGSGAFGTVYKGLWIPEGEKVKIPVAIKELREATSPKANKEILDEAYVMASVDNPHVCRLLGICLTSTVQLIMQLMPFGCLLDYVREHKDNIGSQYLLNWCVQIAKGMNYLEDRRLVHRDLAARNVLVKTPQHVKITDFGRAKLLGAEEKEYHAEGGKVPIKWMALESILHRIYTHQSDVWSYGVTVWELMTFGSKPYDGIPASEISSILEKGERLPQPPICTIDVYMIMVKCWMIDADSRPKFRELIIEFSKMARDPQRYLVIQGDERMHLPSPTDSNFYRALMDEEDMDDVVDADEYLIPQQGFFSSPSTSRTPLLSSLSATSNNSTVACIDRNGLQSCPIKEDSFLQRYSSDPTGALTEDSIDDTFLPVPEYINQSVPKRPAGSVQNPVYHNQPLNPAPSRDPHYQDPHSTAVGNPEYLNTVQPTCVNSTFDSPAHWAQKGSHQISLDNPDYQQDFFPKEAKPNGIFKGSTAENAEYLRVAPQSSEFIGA

Row | IC50 [1] [µM] | logD at 6 h (physchem) | IC50 [2] [µM] | IC50 (A-431) [µM] | IC50 (HepG2) [µM] | IC50 (A549) [µM] | solubility [3] [µg] | SMILES | selectivity ratio (in vitro) | further results
1 | 0.0431 | 3.51 | 0.0632 | 7.49 | 7.06 | 7.29 | 15.4 | O=C(CCl)Nc1cccc(Nc2nc(Nc3ccc4[nH]c(=O)oc4c3)ncc2Cl)c1 | 0.96 | 
2 | 0.0436 | 3.18 | 0.0697 | 3.47 | 1.07 | 0.23 | 13.4 | C=CC(=O)Nc1cccc(Nc2nc(Nc3ccc(N4CCN(C(C)=O)CC4)cc3)ncc2Cl)c1 | 4.65 | 
3 | 0.0226 | 3.67 | 0.0568 | 7.05 | 12.6 | 5.78 | 8.65 | COc1cc(N2CCN(C(C)=O)CC2)ccc1Nc1ncc(Cl)c(Nc2cccc(NC(=O)CCl)c2)n1 | 2.18 | Ratio IC50 [4]: 28
4 | 0.0659 |  |  |  |  |  |  | CCC(=O)Nc1cccc(Nc2nc(Nc3ccc(N4CCN(C(C)=O)CC4)cc3)ncc2Cl)c1 |  | 
5 | 0.058 |  |  |  |  |  |  | COc1cc(N2CCN(C(C)=O)CC2)ccc1Nc1ncc(Cl)c(Nc2cccc(NC(=O)/C=C/c3ccccc3)c2)n1 |  | 
6 | 0.035 | 2.67 | 0.0189 | 11.2 | 28.3 | 2.77 | 80.1 | CCC(=O)Nc1cccc(Nc2nc(Nc3cnn(C)c3)ncc2Cl)c1 | 10.2 | IC50 [5]: 0.0317 µM
7 | 0.0416 | 2.6 | 0.0478 | 3.7 | 4.3 | 2.78 | 183 | Cn1cc(Nc2ncc(Cl)c(Nc3cccc(NC(=O)CCl)c3)n2)cn1 | 1.54 | IC50 [5]: 0.911 µM
8 | 0.0876 |  |  |  |  |  |  | C=CC(=O)Nc1cccc(Nc2nc(Nc3ccc(N4CCN(C(C)=O)CC4)cc3OC)ncc2Cl)c1 |  | 
9 |  | 3.18 |  | 0.32 | 7.39 | 0.2 | 221 | C=CC(=O)Nc1cccc(Nc2nc(Nc3ccc(N4CCN(C(C)=O)CC4)cc3OC)ncc2C(F)(F)F)c1 [ROCILETINIB] |  | IC50 [5]: 0.0043 µM
10 | 0.0629 |  |  |  |  |  |  | CCC(=O)Nc1cccc(Nc2nc(Nc3ccc(N4CCN(C(C)=O)CC4)cc3OC)ncc2Cl)c1 |  | 
11 | 0.114 |  |  |  |  |  |  | CC(=O)N1CCN(c2ccc(Nc3ncc(Cl)c(Nc4cccc(NC(=O)CCl)c4)n3)cc2)CC1 |  | 
12 | 0.0789 |  |  |  |  |  |  | Cc1c2ccc(Nc3ncc(Cl)c(Nc4cccc(NC(=O)CCl)c4)n3)cc2nn1C |  | 
13 | 0.0878 |  |  |  |  |  |  | CC(=O)N1CCN(c2ccc(Nc3ncc(Cl)c(Nc4cccc(NC(=O)/C=C/c5ccccc5)c4)n3)cc2)CC1 |  | 

Continued, compound first:

Row | SMILES | IC50 [1] [µM] | logD at 6 h (physchem) | IC50 [2] [µM] | IC50 (A-431) [µM] | IC50 (HepG2) [µM] | IC50 (A549) [µM] | solubility [3] [µg] | selectivity ratio (in vitro) | further results
14 | CCC(=O)Nc1cccc(Nc2nc(Nc3ccc4c(C)n(C)nc4c3)ncc2Cl)c1 | 0.0592 |  |  |  |  |  |  |  | 
15 | O=C(/C=C/c1ccccc1)Nc1cccc(Nc2nc(Nc3ccc4[nH]c(=O)oc4c3)ncc2Cl)c1 | 0.0767 |  |  |  |  |  |  |  | 
16 | Cn1cc(Nc2ncc(Cl)c(Nc3cccc(NC(=O)/C=C/c4ccccc4)c3)n2)cn1 | 0.0448 | 4.18 | 0.0228 | 10.5 | 3.65 | 1.48 | 1.35 | 2.46 | IC50 [5]: 0.008 µM
17 | C=CC(=O)Nc1cc(Nc2nccc(-c3cn(C)c4ccccc34)n2)c(OC)cc1N(C)CCN(C)C [OSIMERTINIB] |  | 3.43 |  | […] | 3.65 | 10.2 | 30.1 |  | IC50 [5]: 0.0353 µM
18 | C=CC(=O)Nc1cccc(Nc2nc(Nc3cnn(C)c3)ncc2Cl)c1 | 0.174 | 2.86 | 0.0207 | 6.39 | 3.25 | 0.79 | 109 | 4.11 | Ki [6]: 3810 µM; Kinact [7]: 6.16 10^-1/s; IC50 [5]: 0.0695 µM
19 | C=CC(=O)Nc1cccc(Nc2nc(Nc3ccc4c(C)n(C)nc4c3)ncc2Cl)c1 | 0.0978 |  |  |  |  |  |  |  | 
20 | CCC(=O)Nc1cccc(Nc2nc(Nc3ccc4[nH]c(=O)oc4c3)ncc2Cl)c1 | 0.116 |  |  |  |  |  |  |  | 
21 | C=CC(=O)Nc1cccc(Nc2nc(Nc3ccc4[nH]c(=O)oc4c3)ncc2Cl)c1 | 0.0635 |  |  |  |  |  |  |  | 
22 | Cc1c2ccc(Nc3ncc(Cl)c(Nc4cccc(NC(=O)/C=C/c5ccccc5)c4)n3)cc2nn1C | 0.0656 |  |  |  |  |  |  |  | 
